This is an account of results in patent US20180272042A1, “DRUG-POLYMER FILM FOR CONTROLLED LOCAL DELIVERY AT TISSUE-DEVICE INTERFACE” (Brown University, priority 2017, published 2018).

This assay deals with oxidative stress. As to the kind of experiment: oxidative stress in vitro model. The class given is cell-based. The note with it: pterostilbene compared with resveratrol.

With `Oc1ccc(C=Cc2cc(O)cc(O)c2)cc1` [resveratrol], the “treatment of oxidative stress” value was “comparable”.
